{"source": "patent US10322180B2", "about": "“Pharmaceutical composition comprising modified hemoglobin-based therapeutic agent for cancer targeting treatment and diagnostic imaging” (Vision Global Holdings Ltd., priority 2013, dated 2019)", "tested_on": "Liver cancer cells, HepG2", "test": "Live cell imaging uptake, liver cancer cells", "format": "cell-based, human", "conditions": "FIG. 23A-23C", "protocol": "Cancer cells (e.g. HepG2 liver cancer cells) are seeded onto glass bottom microwell dishes (MatTek Corporation). Live cells at defined zooms (63×, 20×) are acquired using Zeiss Observer Z1 widefield microscope, equipped with atmospheric/temperature-controlled chamber and motorized stage for multi-positional acquisition. The incubation is performed in an enclosed live cell imaging system purged with 0.1% 02 and 5% CO2 (premixed). Cells are exposed to (1) Hb-5FU-alkyl(non-cleavable)-FL conjugate, labeled with one fluorescent dye and (2) Hb-5Fu-Dan-TAM conjugate, labeled with two fluorescent dyes; for 15 min prior to the acquisition of images every 3 min for a period of 2 h. Images are deconvolved and compacted into time-lapse movies using the MetaMorph software (Molecular Device).", "data": [{"substance": "fluorescent labeled hemoglobin: hemoglobin linked to one or more molecules of fluorescein (fluorescein 6-carboxysuccinimidyl ester, F-6-NHS)", "values": [{"measurement": "entry into liver cancer cells (fluorescent signal under microscope)", "value": "can also enter into the cancer cells"}, {"measurement": "entry into liver cancer cells (fluorescent signal under microscope)", "setting": "listed as fluorescent labeled modified hemoglobin", "value": "can enter into liver cancer cells successfully"}]}]}
